{"source": "patent US12534454B2", "about": "“Crystal forms of 5-fluoro-1-(4-fluoro-3-(4-(pyrimidin-2-yl)piperazine-1-carbonyl)benzyl)quinazoline-2,4(1H,3H)-dione and preparation thereof” (IMPACT THERAPEUTICS (SHANGHAI), INC, priority 2020, dated 2026)", "format_in_all_cases": "physicochemical", "key": {"[1]": {"experiment": "Long-term stability study of crystal form VIII", "conditions": "for Water content / XRPD (crystal form): 25 ± 2° C./60 ± 5% RH", "experimental": "A long-term stability study has been carried out under condition of 25° C./60% RH for the crystal form VIII."}, "[2]": {"experiment": "Relative humidity X-ray powder diffraction (RH-XRPD) of Crystal Form VIII", "experimental": "Based on the above data, Crystal Form VIII was most likely to be a hydrate. […] Therefore, Crystal Form VIII was further characterized by RH-XRPD to confirm the hydrate crystal Form and to have the knowledge of the crystal Form transformation with the different RH.\nThe parameters of XRPD used in the test were as follows: • Tube: Cu/K-Alpha (λ=1.54179Å); • Generator: Voltage: 40 KV; Current: 40 mA; • Scan Scope: 3-40 deg; • Scan Speed: 10 deg/min.\nAbout 100 mg of compound was evenly distributed to form a layer in a sample holder and transferred to a RH control component in which the relative humidity was controlled and adjusted by the ratio of dry/wet N2 blown."}, "[3]": {"experiment": "Dynamic Vapor Sorption (DVS) hygroscopicity", "conditions": "for hygroscopicity classification: DVS; for hygroscopicity classification / mass increase (DVS): 25° C.; for change of crystal form after the DVS testing: after DVS cycle 0%-90%-0% RH; for mass increase (DVS): relative humidity from 0% to 80%", "experimental": "About 10 mg of sample was transferred to a DVS sample pan and the weight change as the humidity of the environment at 25° C. changes was recorded. The parameters of […] were set as follows: • Equilibrium dm/dt: 0.01%/min: (minimum: 10 min; maximum: 180 min); • Drying: 0% RH, 120 min; • RH (%) gradients: 10%; • RH (%) cycle: 0%-90%-0%. • Definition on Hygroscopicity"}, "[4]": {"experiment": "Water activity study (competition of crystal forms)", "experimental": "Crystal Form VIII was dissolved in solvents with different water activity shown in the table below and then filtered by a needle filter to prepare a saturated solution. After the filtrate was transferred into a 1.5 mL vial, 2 mg of Crystal Form I, II, VIII, X and XI were added respectively and the resulting suspensions were shaken for a while at the target temperatures. After centrifugation, the solid obtained was air dried at ambient temperature (DMSO system was washed by MTBE) and then examined by XRPD to identify changes among different crystal forms."}, "[5]": {"experiment": "Physical stability study of crystal forms (XRPD)", "conditions": "25° C./60% RH and 40° C./75% RH (long-term and accelerated), 2 weeks", "experimental": "About 10 mg of Crystal Forms II, V and VI were added into 1.5 mL vial respectively which were then placed at the conditions of 25° C./60% RH and 40° C./75% RH. The solid in the vials was examined by XRPD at the corresponding time points."}, "[6]": {"experiment": "Thermodynamic stability / solvent competition among crystal forms", "conditions": "for thermodynamic status among anhydrate crystal forms: temperature below 50° C.", "experimental": "After filtration by a needle filter, the filtrate was transferred to 1.5 mL vial. To the vial was added 5 mg of Crystal Form V and VI and the resulting suspensions were shaken for a while at the target temperatures. After centrifugation, the obtained solid was dried at 40° C. by vacuum overnight and then examined by XRPD to identify changes among different crystal forms.\nWith different solvents at corresponding temperatures shown in the table below, Crystal Form VIII was dissolved until saturated respectively. After filtration by a needle filter, the filtrate was transferred to 1.5 mL vial. To the vial was added 5 mg of Crystal Form III, V and IX and the resulting suspensions were shaken for a while at the target temperatures. After centrifugation, the obtained solid was dried at 40° C. by vacuum overnight and then examined by XRPD to identify changes among different crystal forms."}}, "note": "Entries after “also recorded” stand apart in the source; their conditions may differ.", "data": [{"smiles": "O.O.O=C(c1cc(Cn2c(=O)[nH]c(=O)c3c(F)cccc32)ccc1F)N1CCN(c2ncccn2)CC1", "note": "[Crystal Form VIII, 5-fluoro-1-(4-fluoro-3-(4-(pyrimidin-2-yl)piperazine-1-carbonyl)benzyl)quinazoline-2,4(1H,3H)-dione dihydrate]", "values": [{"measurement": "change of water content in long-term stability", "setting": "[1]; 25° C./60% RH, up to 24 months", "result": "no significant change"}, {"measurement": "crystal form change in long-term stability", "setting": "[1]; 25° C./60% RH, up to 24 months", "result": "no crystal form change"}, {"measurement": "long-term stability (in words)", "setting": "[1]; 25° C./60% RH, up to 24 months", "result": "stable"}, {"measurement": "Water content", "setting": "[1]; 9 months", "result": 7.8, "unit": "%"}, {"measurement": "Water content", "setting": "[1]; 12 months", "result": 7.7, "unit": "%"}, {"measurement": "XRPD (crystal form)", "setting": "[1]; 12 months", "result": "Form VIII"}, {"measurement": "Water content", "setting": "[1]; 18 months", "result": 7.6, "unit": "%"}, {"measurement": "Water content", "setting": "[1]; 24 months", "result": 7.4, "unit": "%"}, {"measurement": "XRPD (crystal form)", "setting": "[1]; 24 months", "result": "Form VIII"}, {"measurement": "Water content", "setting": "[1]; Initial", "result": 7.7, "unit": "%"}, {"measurement": "XRPD (crystal form)", "setting": "[1]; Initial", "result": "Form VIII"}, {"measurement": "Crystal Form (RH-XRPD), absorption process", "setting": "[2]; 0% RH, equilibrium 2 hour", "result": "XII"}, {"measurement": "Crystal Form (RH-XRPD), desorption process", "setting": "[2]; 0% RH, equilibrium 2 hour", "result": "XII"}, {"measurement": "Crystal Form (RH-XRPD), absorption process", "setting": "[2]; 10% RH, equilibrium 2 hour", "result": "XII"}, {"measurement": "Crystal Form (RH-XRPD), desorption process", "setting": "[2]; 10% RH, equilibrium 2 hour", "result": "XII"}, {"measurement": "Crystal Form (RH-XRPD), absorption process", "setting": "[2]; 20% RH, equilibrium 2 hour", "result": "XII"}, {"measurement": "Crystal Form (RH-XRPD), desorption process", "setting": "[2]; 20% RH, equilibrium 2 hour", "result": "XII"}, {"measurement": "Crystal Form (RH-XRPD), absorption process", "setting": "[2]; 30% RH, equilibrium 2 hour", "result": "“VIII”"}, {"measurement": "Crystal Form (RH-XRPD), desorption process", "setting": "[2]; 30% RH, equilibrium 2 hour", "result": "VIII"}, {"measurement": "Crystal Form (RH-XRPD), absorption process", "setting": "[2]; 40% RH, equilibrium 2 hour", "result": "VIII"}, {"measurement": "Crystal Form (RH-XRPD), desorption process", "setting": "[2]; 40% RH, equilibrium 2 hour", "result": "VIII"}, {"measurement": "Crystal Form (RH-XRPD), absorption process", "setting": "[2]; 50% RH, equilibrium 2 hour", "result": "VIII"}, {"measurement": "Crystal Form (RH-XRPD), desorption process", "setting": "[2]; 50% RH, equilibrium 2 hour", "result": "VIII"}, {"measurement": "Crystal Form (RH-XRPD), absorption process", "setting": "[2]; 60% RH, equilibrium 0.5 hour", "result": "VIII"}, {"measurement": "Crystal Form (RH-XRPD), desorption process", "setting": "[2]; 60% RH, equilibrium 0.5 hour", "result": "VIII"}, {"measurement": "Crystal Form (RH-XRPD), absorption process", "setting": "[2]; 70% RH, equilibrium 0.5 hour", "result": "VIII"}, {"measurement": "Crystal Form (RH-XRPD), desorption process", "setting": "[2]; 70% RH, equilibrium 0.5 hour", "result": "VIII"}, {"measurement": "Crystal Form (RH-XRPD), absorption process", "setting": "[2]; 80% RH, equilibrium 0.5 hour", "result": "VIII"}, {"measurement": "Crystal Form (RH-XRPD), desorption process", "setting": "[2]; 80% RH, equilibrium 0.5 hour", "result": "VIII"}, {"measurement": "Crystal Form (RH-XRPD), absorption process", "setting": "[2]; 90% RH, equilibrium 0.5 hour", "result": "VIII"}, {"measurement": "Crystal Form (RH-XRPD), desorption process", "setting": "[2]; 90% RH, equilibrium 0.5 hour", "result": "VIII"}, {"measurement": "relative humidity at which the crystal form is stable", "setting": "[2]; RH-XRPD and DVS, below it water is lost and the crystal form changes", "result": "no less than 40 % RH"}, {"measurement": "hygroscopicity (in words)", "setting": "[3]", "result": "high hygroscopicity"}]}, {"smiles": "O=C(c1cc(Cn2c(=O)[nH]c(=O)c3c(F)cccc32)ccc1F)N1CCN(c2ncccn2)CC1", "note": "[Crystal Form “VIII”, 5-fluoro-1-(4-fluoro-3-(4-(pyrimidin-2-yl)piperazine-1-carbonyl)benzyl)quinazoline-2,4(1H,3H)-dione]", "values": [{"measurement": "crystal form after moisture absorption", "setting": "[2]; 5° C./75% RH, ambient temperature/75% RH, or 40° C./75% RH", "result": "return to Crystal Form VIII"}]}, {"smiles": "O=C(c1cc(Cn2c(=O)[nH]c(=O)c3c(F)cccc32)ccc1F)N1CCN(c2ncccn2)CC1", "note": "[Crystal Form II, 5-fluoro-1-(4-fluoro-3-(4-(pyrimidin-2-yl)piperazine-1-carbonyl)benzyl)quinazoline-2,4(1H,3H)-dione]", "values": [{"measurement": "crystal form change in a low water activity", "setting": "[4]; Aw<0.3", "result": "changed to Crystal Form V"}, {"measurement": "crystal form change within two weeks", "setting": "[5]", "result": "no crystal form change; also recorded: not changed"}, {"measurement": "hygroscopicity classification", "setting": "[3]", "result": "hygroscopic"}]}, {"smiles": "O=C(c1cc(Cn2c(=O)[nH]c(=O)c3c(F)cccc32)ccc1F)N1CCN(c2ncccn2)CC1", "note": "[Crystal Form VI, 5-fluoro-1-(4-fluoro-3-(4-(pyrimidin-2-yl)piperazine-1-carbonyl)benzyl)quinazoline-2,4(1H,3H)-dione]", "values": [{"measurement": "thermodynamic status among anhydrate crystal forms", "setting": "[6]; anhydrous solvents", "result": "metastable"}, {"measurement": "crystal form change in the hydrous solvents", "setting": "[6]", "result": "changed to Crystal Form II"}, {"measurement": "crystal form change within two weeks", "setting": "[5]", "result": "not changed"}, {"measurement": "hygroscopicity classification", "setting": "[3]", "result": "slight hygroscopic"}, {"measurement": "change of crystal form after the DVS testing", "setting": "[3]", "result": "no significant change"}, {"measurement": "mass increase (DVS)", "setting": "[3]", "result": "about 0.5%"}]}, {"smiles": "O=C(c1cc(Cn2c(=O)[nH]c(=O)c3c(F)cccc32)ccc1F)N1CCN(c2ncccn2)CC1", "note": "[Crystal Form III, 5-fluoro-1-(4-fluoro-3-(4-(pyrimidin-2-yl)piperazine-1-carbonyl)benzyl)quinazoline-2,4(1H,3H)-dione]", "values": [{"measurement": "thermodynamic status among anhydrate crystal forms", "setting": "[6]; anhydrous solvents", "result": "metastable"}]}, {"smiles": "O=C(c1cc(Cn2c(=O)[nH]c(=O)c3c(F)cccc32)ccc1F)N1CCN(c2ncccn2)CC1", "note": "[Crystal Form V, 5-fluoro-1-(4-fluoro-3-(4-(pyrimidin-2-yl)piperazine-1-carbonyl)benzyl)quinazoline-2,4(1H,3H)-dione]", "values": [{"measurement": "relative stability in the anhydrous solvents", "setting": "[6]; anhydrous solvents, 25° C., 50° C. and 80° C.", "result": "more stable than Crystal Form VI"}, {"measurement": "thermodynamic status among anhydrate crystal forms", "setting": "[6]; anhydrous solvents", "result": "dominant"}, {"measurement": "crystal form change in the hydrous solvents", "setting": "[6]", "result": "changed to Crystal Form II"}, {"measurement": "crystal form change in a high water activity", "setting": "[4]; Aw>0.3", "result": "changed to Crystal Form II"}, {"measurement": "crystal form change within two weeks", "setting": "[5]", "result": "no crystal form change; also recorded: not changed"}, {"measurement": "hygroscopicity classification", "setting": "[3]", "result": "slight hygroscopic"}, {"measurement": "change of crystal form after the DVS testing", "setting": "[3]", "result": "no significant change"}, {"measurement": "mass increase (DVS)", "setting": "[3]", "result": "about 0.8%"}]}, {"smiles": "O=C(c1cc(Cn2c(=O)[nH]c(=O)c3c(F)cccc32)ccc1F)N1CCN(c2ncccn2)CC1", "note": "[Crystal Form IX, 5-fluoro-1-(4-fluoro-3-(4-(pyrimidin-2-yl)piperazine-1-carbonyl)benzyl)quinazoline-2,4(1H,3H)-dione]", "values": [{"measurement": "thermodynamic status among anhydrate crystal forms", "setting": "[6]; anhydrous solvents", "result": "metastable"}]}]}
